Measurements published in patent US20170190671A1, “BIS(ARYL)CATECHOL DERIVATIVES AS HERBICIDES” (E I DU PONT DE NEMOURS AND COMPANY, priority 2014, published 2017).

Tests used:
Assay in all cases: Test C preemergence
Assay type in all cases: in vivo
[1] = tested on: large (Lg) crabgrass (Digitaria sanguinalis); conditions: Digitaria sanguinalis, pre-emergence, 336 h, scale 0 to 100, read-out: Plant response rating, Crabgrass, Large
In short: (§1)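 Seeds sown in a loam soil and sand blend were treated preemergence; plants in peat-moss/vermiculite medium were sprayed at the 1- to 4-leaf stage (2-18 cm). Chemicals were in a non-phytotoxic surfactant-containing solvent. After 13 to 15 days in a greenhouse, injury was visually rated against controls on a 0-100 scale.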

soybean (Glycine max) = conditions: Glycine max, pre-emergence, preemergence, scale 0 to 100, read-out: Plant response rating, Soybean
In short: as §1

[2] = tested on: pigweed (Amaranthus retroflexus); conditions: Amaranthus retroflexus, pre-emergence, 336 h, scale 0 to 100, read-out: Plant response rating, Pigweed
In short: as §1

[3] = tested on: winter wheat (Triticum aestivum); conditions: Triticum aestivum, pre-emergence, 336 h, scale 0 to 100, read-out: Plant response rating, Wheat
In short: as §1

[4] = tested on: blackgrass (Alopecurus myosuroides); conditions: Alopecurus myosuroides, pre-emergence, 336 h, scale 0 to 100, read-out: Plant response rating, Blackgrass
In short: as §1

[5] = tested on: giant foxtail (Setaria faberii); conditions: Setaria faberi, pre-emergence, 336 h, scale 0 to 100, read-out: Plant response rating, Foxtail, Giant
In short: as §1

[6] = tested on: Italian ryegrass (Lolium multiflorum); conditions: Lolium multiflorum, pre-emergence, 336 h, scale 0 to 100, read-out: Plant response rating, Ryegrass, Italian
In short: as §1

[7] = tested on: velvetleaf (Abutilon theophrasti); conditions: Abutilon theophrasti, pre-emergence, scale 0 to 100, read-out: Plant response rating, Velvetleaf
In short: as §1

[8] = tested on: lambsquarters (Chenopodium album); conditions: Chenopodium album, pre-emergence, 336 h, scale 0 to 100, read-out: Plant response rating, Lambsquarters
In short: as §1

corn (Zea mays) = conditions: Zea mays, pre-emergence, 336 h, scale 0 to 100
In short: as §1

[9] = tested on: yellow nutsedge (Cyperus esculentus); conditions: Cyperus, pre-emergence, 336 h, scale 0 to 100, read-out: Plant response rating, Nutsedge, Yellow
In short: as §1

[10] = tested on: oilseed rape (Brassica napus); conditions: Brassica napus, pre-emergence, preemergence, scale 0 to 100, read-out: Plant response rating, Oilseed Rape
In short: as §1

[11] = tested on: morningglory (Ipomoea coccinea); conditions: Ipomoea, pre-emergence, 336 h, scale 0 to 100, read-out: Plant response rating, Morningglory
In short: as §1

[12] = tested on: ragweed (common ragweed, Ambrosia elatior); conditions: Ambrosia artemisiifolia, pre-emergence, 336 h, preemergence, scale 0 to 100, read-out: Plant response rating, Ragweed
In short: as §1

[13] = tested on: waterhemp (common waterhemp, Amaranthus rudis); conditions: Amaranthus tuberculatus, pre-emergence, scale 0 to 100, read-out: Plant response rating, Waterhemp
In short: as §1

## N#Cc1cccc(Oc2ncc(Br)cn2)c1Oc1ncc(Cl)cn1 [Compound 5, 3-[(5-bromo-2-pyrimidinyl)oxy]-2-[(5-chloro-2-pyrimidinyl)oxy]benzonitrile]
[1]; 31 g ai/ha, preemergence
  pest or weed control at 31 g/ha: 98%
[1]; 62 g ai/ha, preemergence
  pest or weed control at 62 g/ha: 100%
[1]; 125 g ai/ha, preemergence
  pest or weed control at 125 g/ha: 100%
[1]; Preemergence, 16 g ai/ha
  pest or weed control at 16 g/ha: 70%
Soybean (Glycine max); 31 g ai/ha
  plant injury at 31 g/ha: 45%
Soybean (Glycine max); 62 g ai/ha
  plant injury at 62 g/ha: 65%
Soybean (Glycine max); 125 g ai/ha
  plant injury at 125 g/ha: 85%
[2]; 31 g ai/ha, preemergence
  pest or weed control at 31 g/ha: 100%
[2]; 62 g ai/ha, preemergence
  pest or weed control at 62 g/ha: 100%
[2]; 125 g ai/ha, preemergence
  pest or weed control at 125 g/ha: 100%
[2]; Preemergence, 16 g ai/ha
  pest or weed control at 16 g/ha: 100%
[3]; 31 g ai/ha, preemergence
  plant injury at 31 g/ha: 0%
[3]; 62 g ai/ha, preemergence
  plant injury at 62 g/ha: 5%
[3]; 125 g ai/ha, preemergence
  plant injury at 125 g/ha: 35%
[3]; Preemergence, 16 g ai/ha
  plant injury at 16 g/ha: 0%
[4]; 31 g ai/ha, preemergence
  pest or weed control at 31 g/ha: 30%
[4]; 62 g ai/ha, preemergence
  pest or weed control at 62 g/ha: 40%
[4]; 125 g ai/ha, preemergence
  pest or weed control at 125 g/ha: 70%
[4]; Preemergence, 16 g ai/ha
  pest or weed control at 16 g/ha: 10%
[5]; 31 g ai/ha, preemergence
  pest or weed control at 31 g/ha: 80%
[5]; 62 g ai/ha, preemergence
  pest or weed control at 62 g/ha: 100%
[5]; 125 g ai/ha, preemergence
  pest or weed control at 125 g/ha: 100%
[5]; Preemergence, 16 g ai/ha
  pest or weed control at 16 g/ha: 30%
[6]; 31 g ai/ha, preemergence
  pest or weed control at 31 g/ha: 5%
[6]; 62 g ai/ha, preemergence
  pest or weed control at 62 g/ha: 55%
[6]; 125 g ai/ha, preemergence
  pest or weed control at 125 g/ha: 60%
[6]; Preemergence, 16 g ai/ha
  pest or weed control at 16 g/ha: 0%
[7]; 31 g ai/ha, preemergence
  pest or weed control at 31 g/ha: 90%
[7]; 62 g ai/ha, preemergence
  pest or weed control at 62 g/ha: 100%
[7]; 125 g ai/ha, preemergence
  pest or weed control at 125 g/ha: 100%
[7]; Preemergence, 16 g ai/ha
  pest or weed control at 16 g/ha: 60%
[8]; 31 g ai/ha, preemergence
  pest or weed control at 31 g/ha: 100%
[8]; 62 g ai/ha, preemergence
  pest or weed control at 62 g/ha: 100%
[8]; 125 g ai/ha, preemergence
  pest or weed control at 125 g/ha: 100%
[8]; Preemergence, 16 g ai/ha
  pest or weed control at 16 g/ha: 80%
Corn (Zea mays); 31 g ai/ha, preemergence
  Corn plant response rating (crop injury, 0 = no effect, 100 = complete kill) at 31 g/ha: 25%
Corn (Zea mays); 62 g ai/ha, preemergence
  Corn plant response rating (crop injury, 0 = no effect, 100 = complete kill) at 62 g/ha: 60%
Corn (Zea mays); 125 g ai/ha, preemergence
  Corn plant response rating (crop injury, 0 = no effect, 100 = complete kill) at 125 g/ha: 75%
Corn (Zea mays); Preemergence, 16 g ai/ha
  Corn plant response rating (crop injury, 0 = no effect, 100 = complete kill) at 16 g/ha: 5%
[9]; 31 g ai/ha, preemergence
  pest or weed control at 31 g/ha: 5%
[9]; 62 g ai/ha, preemergence
  pest or weed control at 62 g/ha: 25%
[9]; 125 g ai/ha, preemergence
  pest or weed control at 125 g/ha: 60%
[9]; Preemergence, 16 g ai/ha
  pest or weed control at 16 g/ha: 0%
[10]; 31 g ai/ha
  plant injury at 31 g/ha: 70%
[10]; 62 g ai/ha
  plant injury at 62 g/ha: 98%
[10]; 125 g ai/ha
  plant injury at 125 g/ha: 100%
[11]; 31 g ai/ha, preemergence
  pest or weed control at 31 g/ha: 60%
[11]; 62 g ai/ha, preemergence
  pest or weed control at 62 g/ha: 80%
[11]; 125 g ai/ha, preemergence
  pest or weed control at 125 g/ha: 95%
[11]; Preemergence, 16 g ai/ha
  pest or weed control at 16 g/ha: 30%
[12]; 31 g ai/ha
  pest or weed control at 31 g/ha: 20%
[12]; 62 g ai/ha
  pest or weed control at 62 g/ha: 80%
[12]; 125 g ai/ha
  pest or weed control at 125 g/ha: 100%
[13]; 31 g ai/ha, preemergence
  pest or weed control at 31 g/ha: 100%
[13]; 62 g ai/ha, preemergence
  pest or weed control at 62 g/ha: 100%
[13]; 125 g ai/ha, preemergence
  pest or weed control at 125 g/ha: 100%
[13]; Preemergence, 16 g ai/ha
  pest or weed control at 16 g/ha: 85%
